Reference: patent publication US4530907A, “Perfusion-cultivation of animal cells and equipment therefor” (priority 1981, dated 1985)
Read-outs that look alike come from different tables or passages of the source.

Tested on: neuroblastoma cells
From the text: The test system in question is based on cultivation of neuroblastoma cells C1300, 41A3 and the effect on these cells measured as general biological cell changes or biochemical changes, as a function of the content of toxic substances in the substrate. The cell line used is suitable for such measurements since its biology and biochemistry is well documented.
Examples of other parameters which can be used are ATP (adenosine triphosphate) content and LDH (lactate dehydrogenase) activity in the perfusion liquid. These function as indicators of membrane leakage and their concentration can be expected to increase after exposure. Another way of measuring membrane leakage is to study the outflow of an isotope-marked marker (see Example 5). It is also possible to measure the absorption of trypan blue in dead cells with the help of light absorption (see Example 4 and FIG. 4).
Determining LD50 values by means of cell death, measured as absorption of trypan blue
The accumulation of trypan blue (a stain which is taken up in dead cells) can be calculated with the help of light-absorption measurements.

[1] = trypan blue absorption by light absorption, statement for all listed substances together

Clc1ccc(C(c2ccc(Cl)cc2)C(Cl)(Cl)Cl)cc1 [pp-DDT]
cell death in neuroblastoma cells, correlation with the LD50 values obtained from animal experiments [1]: correlates well

[Cl][Hg][Cl] [HgCl2]
cell death in neuroblastoma cells, correlation with the LD50 values obtained from animal experiments [1]: correlates well

c1ccccc1 [benzene]
cell death in neuroblastoma cells, correlation with the LD50 values obtained from animal experiments: correlates well

[CH3][Hg][Cl] [CH3 HgCl]
cell death in neuroblastoma cells, correlation with the LD50 values obtained from animal experiments [1]: correlates well

CC(C)=O [acetone]
cell death in neuroblastoma cells, correlation with the LD50 values obtained from animal experiments [1]: correlates well

[K+].[K+].[O]=[Cr](=[O])([O-])[O][Cr](=[O])(=[O])[O-] [K2 Cr2 O7]
cell death in neuroblastoma cells, correlation with the LD50 values obtained from animal experiments [1]: correlates well

C1COCCO1 [dioxane]
cell death in neuroblastoma cells, correlation with the LD50 values obtained from animal experiments [1]: correlates well

[Cl][Cd][Cl] [CdCl2]
cell death in neuroblastoma cells, correlation with the LD50 values obtained from animal experiments [1]: correlates well

CCCCO [n-butanol]
cell death in neuroblastoma cells, correlation with the LD50 values obtained from animal experiments [1]: correlates well

CCCO [n-propanol]
cell death in neuroblastoma cells, correlation with the LD50 values obtained from animal experiments [1]: correlates well
